These are literature values, as cited in US20070031367A1, “Composition and method for neck skin firming” (priority 2004, published 2007).

The structures appear in SMILES notation.

Regarding `COc1cc(CNC(=O)CCCC/C=C/C(C)C)ccc1O` [Capsaicin, N-canillyl-8-methyl-6-(E)-noneamide], where the note is “fats, oils and alcohol”, the “Solubility in fats, oils and alcohol” value was “very soluble”. Also, the Solubility in water result (water) was “sparingly soluble”.
